These molecules were tested against T1, recombinant His-tag Y220C p53 DBD protein (Homo sapiens, UniProt P04637, Y220C) (assay: In vitro DNA binding activity assay (TR-FRET): binding of His-tag Y220C p53 DBD to biotin-labeled consensus DNA). Conditions: SC150 = concentration to increase DNA binding by […], His-tag Y220C p53 DBD, biotin-labeled consensus DNA.
T1 construct: recombinant His-tag Y220C p53 DBD protein (amino acids #˜94-312)
Type: biochemical

Y220C SC150 (μM)	Compound
* (* = 0 μM ≤ SC150 < 0.1 μM)	COCC(C)(C)n1cc(C(=O)NCc2nc(-c3cc4c(N[C@H]5CCN(C(C)(C)C)C[C@@H]5F)cccc4n3CC(F)(F)F)no2)cn1 (racemic) [Compound 411B, N-{[3-(4-{[(3R,4R)-1-tert-butyl-3-fluoropiperidin-4-yl]amino}-1-(2,2,2-trifluoroethyl)-1H-indol-2-yl)-1,2,4-oxadiazol-5-yl]methyl}-1-(1-methoxy-2-methylpropan-2-yl)-1H-pyrazole-4-carboxamide]
* (* = 0 μM ≤ SC150 < 0.1 μM)	CO[C@H]1CCC[C@@H]1n1ccc(C(=O)NCc2nc(-c3cc4c(N[C@@H]5CCN(C)C[C@@H]5F)cccc4n3CC(F)(F)F)no2)c1 (relative stereo) [Compound 355B]
* (* = 0 μM ≤ SC150 < 0.1 μM)	CO[C@H]1CCCC[C@@H]1n1ccc(C(=O)NCc2nc(-c3cc4c(N[C@@H]5CCN(C)C[C@@H]5F)cccc4n3CC(F)(F)F)no2)c1 (relative stereo) [Compound 384B]
* (* = 0 μM ≤ SC150 < 0.1 μM)	CO[C@H]1CCCC[C@@H]1n1cc(C(=O)NCc2nc(-c3cc4c(N[C@@H]5CCN(C)C[C@@H]5F)cccc4n3CC(F)(F)F)no2)cn1 (relative stereo) [Compound 385B]
* (* = 0 μM ≤ SC150 < 0.1 μM)	CN1CC[C@@H](Nc2cccc3c2cc(-c2noc(CNC(=O)c4cnn([C@H]5CCC[C@@H]5F)c4)n2)n3CC(F)(F)F)[C@@H](F)C1 (relative stereo) [Compound 395B]
* (* = 0 μM ≤ SC150 < 0.1 μM)	COC1CCCC1n1cc(C(=O)NCc2nc(-c3cc4c(N[C@@H]5CCN(C)C[C@@H]5F)cccc4n3CC(F)(F)F)no2)cn1 (stereo in doubt) [Compound 348B, N-{[3-(4-{[(3S,4R)-3-fluoro-1-methylpiperidin-4-yl]amino}-1-(2,2,2-trifluoroethyl)-1H-indol-2-yl)-1,2,4-oxadiazol-5-yl]methyl}-1-[(1R,2R)-2-methoxycyclopentyl]-1H-pyrazole-4-carboxamide]
* (* = 0 μM ≤ SC150 < 0.1 μM)	COC1CCC(n2ccc(C(=O)NCc3nc(-c4cc5c(N[C@@H]6CCN(C)C[C@@H]6F)cccc5n4CC(F)(F)F)no3)c2)C1 (stereo in doubt) [Compound 359B, N-{[3-(4-{[(3S,4R)-3-fluoro-1-methylpiperidin-4-yl]amino}-1-(2,2,2-trifluoroethyl)-1H-indol-2-yl)-1,2,4-oxadiazol-5-yl]methyl)-1-[(1R,3S)-3-methoxycyclopentyl]-1H-pyrrole-3-carboxamide]
* (* = 0 μM ≤ SC150 < 0.1 μM)	COC1CCC(n2ccc(C(=O)NCc3nc(-c4cc5c(N[C@@H]6CCN(C)C[C@@H]6F)cccc5n4CC(F)(F)F)no3)c2)C1 (stereo in doubt) [Compound 360B, N-{[3-(4-{[(3S,4R)-3-fluoro-1-methylpiperidin-4-yl]amino}-1-(2,2,2-trifluoroethyl)-1H-indol-2-yl)-1,2,4-oxadiazol-5-yl]methyl}-1-[(1R,3R)-3-methoxycyclopentyl]-1H-pyrrole-3-carboxamide]
* (* = 0 μM ≤ SC150 < 0.1 μM)	CN1CC[C@@H](Nc2cccc3c2cc(-c2noc(CNC(=O)c4ccn(C5CCC(N(C)C)C5)c4)n2)n3CC(F)(F)F)[C@@H](F)C1 (stereo in doubt) [Compound 361B, 1-[(1R,3R)-3-(dimethylamino)cyclopentyl]-N-{[3-(4-{[(3S,4R)-3-fluoro-1-methylpiperidin-4-yl]amino}-1-(2,2,2-trifluoroethyl)-1H-indol-2-yl)-1,2,4-oxadiazol-5-yl]methyl}-1H-pyrrole-3-carboxamide]
* (* = 0 μM ≤ SC150 < 0.1 μM)	CN1CC[C@@H](Nc2cccc3c2cc(-c2noc(CNC(=O)c4ccn([C@H]5CC[C@@H](N(C)C)C5)c4)n2)n3CC(F)(F)F)[C@@H](F)C1 (stereo in doubt) [Compound 362B, Cis-1-[(1R,3R)-3-(dimethylamino)cyclopentyl]-N-{[3-(4-{[(3S,4R)-3-fluoro-1-methylpiperidin-4-yl]amino}-1-(2,2,2-trifluoroethyl)-1H-indol-2-yl)-1,2,4-oxadiazol-5-yl]methyl}-1H-pyrrole-3-carboxamide]
* (* = 0 μM ≤ SC150 < 0.1 μM)	COC1CCCC1n1ccc(C(=O)NCc2nc(-c3cc4c(N[C@@H]5CCN(C)C[C@@H]5F)cccc4n3CC(F)(F)F)no2)c1 (stereo in doubt) [Compound 364B, N-{[3-(4-{[(3S,4R)-3-fluoro-1-methylpiperidin-4-yl]amino}-1-(2,2,2-trifluoroethyl)-1H-indol-2-yl)-1,2,4-oxadiazol-5-yl]methyl}-1-[(1R,2S)-2-methoxycyclopentyl]-1H-pyrrole-3-carboxamide]
* (* = 0 μM ≤ SC150 < 0.1 μM)	CN1CC[C@@H](Nc2cccc3c2cc(-c2noc(CNC(=O)c4ccn([C@H]5CC[C@](C)(O)C5)c4)n2)n3CC(F)(F)F)[C@@H](F)C1 (stereo in doubt) [Compound 373B, Trans-N-{[3-(4-{[(3S,4R)-3-fluoro-1-methylpiperidin-4-yl]amino}-1-(2,2,2-trifluoroethyl)-1H-indol-2-yl)-1,2,4-oxadiazol-5-yl]methyl}-1-[(1R,3R)-3-hydroxy-3-methylcyclopentyl]-1H-pyrrole-3-carboxamide]
* (* = 0 μM ≤ SC150 < 0.1 μM)	CN1CC[C@@H](Nc2cccc3c2cc(-c2noc(CNC(=O)c4ccn([C@H]5CC[C@@](C)(O)C5)c4)n2)n3CC(F)(F)F)[C@@H](F)C1 (stereo in doubt) [Compound 374B, Cis-N-{[3-(4-{[(3S,4R)-3-fluoro-1-methylpiperidin-4-yl]amino}-1-(2,2,2-trifluoroethyl)-1H-indol-2-yl)-1,2,4-oxadiazol-5-yl]methyl}-1-[(1R,3S)-3-hydroxy-3-methylcyclopentyl]-1H-pyrrole-3-carboxamide]
* (* = 0 μM ≤ SC150 < 0.1 μM)	CCOC1CCCC1n1cc(C(=O)NCc2nc(-c3cc4c(N[C@@H]5CCN(C)C[C@@H]5F)cccc4n3CC(F)(F)F)no2)cn1 (stereo in doubt) [Compound 375B, 1-[(1R,2R)-2-ethoxycyclopentyl]-N-{[3-(4-{[(3S,4R)-3-fluoro-1-methylpiperidin-4-yl]amino}-1-(2,2,2-trifluoroethyl)-1H-indol-2-yl)-1,2,4-oxadiazol-5-yl]methyl}-1H-pyrazole-4-carboxamide]
* (* = 0 μM ≤ SC150 < 0.1 μM)	CCOC1CCCC1n1ccc(C(=O)NCc2nc(-c3cc4c(N[C@@H]5CCN(C)C[C@@H]5F)cccc4n3CC(F)(F)F)no2)c1 (stereo in doubt) [Compound 376B, 1-[(1R,2R)-2-ethoxycyclopentyl]-N-{[3-(4-{[(3S,4R)-3-fluoro-1-methylpiperidin-4-yl]amino}-1-(2,2,2-trifluoroethyl)-1H-indol-2-yl)-1,2,4-oxadiazol-5-yl]methyl}-1H-pyrrole-3-carboxamide]
* (* = 0 μM ≤ SC150 < 0.1 μM)	CN1CC[C@@H](Nc2cccc3c2cc(-c2noc(CNC(=O)c4cnn(C5CCCC5OCCF)c4)n2)n3CC(F)(F)F)[C@@H](F)C1 (stereo in doubt) [Compound 377B, N-{[3-(4-{[(3S,4R)-3-fluoro-1-methylpiperidin-4-yl]amino}-1-(2,2,2-trifluoroethyl)-1H-indol-2-yl)-1,2,4-oxadiazol-5-yl]methyl}-1-[(1R,2R)-2-(2-fluoroethoxy)cyclopentyl]-1H-pyrazole-4-carboxamide]
* (* = 0 μM ≤ SC150 < 0.1 μM)	CN1CC[C@@H](Nc2cccc3c2cc(-c2noc(CNC(=O)c4ccn(C5CCCC5OCCF)c4)n2)n3CC(F)(F)F)[C@@H](F)C1 (stereo in doubt) [Compound 381B, N-{[3-(4-{[(3S,4R)-3-fluoro-1-methylpiperidin-4-yl]amino}-1-(2,2,2-trifluoroethyl)-1H-indol-2-yl)-1,2,4-oxadiazol-5-yl]methyl}-1-[(1R,2R)-2-(2-fluoroethoxy)cyclopentyl]-1H-pyrrole-3-carboxamide]
* (* = 0 μM ≤ SC150 < 0.1 μM)	CN1CC[C@@H](Nc2cccc3c2cc(-c2noc(CNC(=O)c4ccn(C5CCCC5F)c4)n2)n3CC(F)(F)F)[C@@H](F)C1 (stereo in doubt) [Compound 392B, N-{[3-(4-{[(3S,4R)-3-fluoro-1-methylpiperidin-4-yl]amino}-1-(2,2,2-trifluoroethyl)-1H-indol-2-yl)-1,2,4-oxadiazol-5-yl]methyl}-1-[(1R,2R)-2-fluorocyclopentyl]-1H-pyrrole-3-carboxamide]
* (* = 0 μM ≤ SC150 < 0.1 μM)	CC(C)(C)N1CCC(Nc2cccc3c2cc(-c2noc(CNC(=O)c4cnn(C(C)(C)C)c4)n2)n3CC(F)(F)F)[C@@H](F)C1 (stereo in doubt) [Compound 400B, 1-tert-butyl-N-{[3-(4-{[(3S,4R)-1-tert-butyl-3-fluoropiperidin-4-yl]amino}-1-(2,2,2-trifluoroethyl)-1H-indol-2-yl)-1,2,4-oxadiazol-5-yl]methyl}-1H-pyrazole-4-carboxamide]
* (* = 0 μM ≤ SC150 < 0.1 μM)	COC1CCCC1n1ccc(C(=O)NCc2nc(-c3cc4c(N[C@@H]5CN(C)CC[C@@H]5F)cccc4n3CC(F)(F)F)no2)c1 (stereo in doubt) [Compound 410B, N-{[3-(4-{[(3R,4S)-4-fluoro-1-methylpiperidin-3-yl]amino}-1-(2,2,2-trifluoroethyl)-1H-indol-2-yl)-1,2,4-oxadiazol-5-yl]methyl}-1-[(1R,2R)-2-methoxycyclopentyl]-1H-pyrrole-3-carboxamide]
* (* = 0 μM ≤ SC150 < 0.1 μM)	CC1(n2ccc(C(=O)NCc3nc(-c4cc5c(N[C@@H]6CCOC[C@@H]6F)cccc5n4CC(F)(F)F)no3)c2)CCOCC1 (stereo in doubt) [Compound 491B]
* (* = 0 μM ≤ SC150 < 0.1 μM)	CC1(n2ccc(C(=O)NCc3nc(-c4cc5c(N[C@@H]6CCOC[C@@H]6F)cccc5n4CC(F)(F)F)no3)c2)CCOCC1 (stereo in doubt) [Compound 494B, N-((3-(4-(((3R,4R)-3-fluorotetrahydro-2H-pyran-4-yl)amino)-1-(2,2,2-trifluoroethyl)-1H-indol-2-yl)-1,2,4-oxadiazol-5-yl)methyl)-1-(4-methyltetrahydro-2H-pyran-4-yl)-1H-pyrrole-3-carboxamide]

From patent US11807644B2 (PMV Pharmaceuticals, Inc., priority 2020, dated 2023)
